The record followed here is US20240109917A1 (ACTELION PHARMACEUTICALS LTD, priority 2020, published 2024).

Experiment [1] has as its target His6-TEV-PDGFRβ (557-1016) (Homo sapiens (Human), UniProt P09619). Kind of experiment: PDGFRβ HTRF Assay. The format is biochemical. Conditions: read-out: PDGFR HTRF IC50. The essentials: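 HTRF KinEASE-TK readout (665/620 nm ratio) of TK-biotin substrate phosphorylation by His-tagged PDGFRβ kinase domain. Enzyme and inhibitor preincubated 30 min, then ATP/substrate added for 3 h at room temperature before 60 min EDTA quench/detection.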

Experiment [2] addresses Tb-labeled inactive PDGFRβ (Homo sapiens (Human), UniProt P09619). Kind of experiment: PDGFRβ LanthaScreen Assay. To be noted: read-out: PDGFR Lantha IC50. The format is binding. For orientation: TR-FRET usually uses a lanthanide donor and a delayed reading to cut background.
The target in a further experiment is VEGFR2, unphosphorylated (Homo sapiens (Human), UniProt P35968). The experiment in a line: VEGFR ADP GLO Assay. It counts as biochemical. For orientation: ADP-Glo turns the ADP formed in a reaction into a luminescent signal.
Chain of VEGFR2, unphosphorylated (P35968 20-1356): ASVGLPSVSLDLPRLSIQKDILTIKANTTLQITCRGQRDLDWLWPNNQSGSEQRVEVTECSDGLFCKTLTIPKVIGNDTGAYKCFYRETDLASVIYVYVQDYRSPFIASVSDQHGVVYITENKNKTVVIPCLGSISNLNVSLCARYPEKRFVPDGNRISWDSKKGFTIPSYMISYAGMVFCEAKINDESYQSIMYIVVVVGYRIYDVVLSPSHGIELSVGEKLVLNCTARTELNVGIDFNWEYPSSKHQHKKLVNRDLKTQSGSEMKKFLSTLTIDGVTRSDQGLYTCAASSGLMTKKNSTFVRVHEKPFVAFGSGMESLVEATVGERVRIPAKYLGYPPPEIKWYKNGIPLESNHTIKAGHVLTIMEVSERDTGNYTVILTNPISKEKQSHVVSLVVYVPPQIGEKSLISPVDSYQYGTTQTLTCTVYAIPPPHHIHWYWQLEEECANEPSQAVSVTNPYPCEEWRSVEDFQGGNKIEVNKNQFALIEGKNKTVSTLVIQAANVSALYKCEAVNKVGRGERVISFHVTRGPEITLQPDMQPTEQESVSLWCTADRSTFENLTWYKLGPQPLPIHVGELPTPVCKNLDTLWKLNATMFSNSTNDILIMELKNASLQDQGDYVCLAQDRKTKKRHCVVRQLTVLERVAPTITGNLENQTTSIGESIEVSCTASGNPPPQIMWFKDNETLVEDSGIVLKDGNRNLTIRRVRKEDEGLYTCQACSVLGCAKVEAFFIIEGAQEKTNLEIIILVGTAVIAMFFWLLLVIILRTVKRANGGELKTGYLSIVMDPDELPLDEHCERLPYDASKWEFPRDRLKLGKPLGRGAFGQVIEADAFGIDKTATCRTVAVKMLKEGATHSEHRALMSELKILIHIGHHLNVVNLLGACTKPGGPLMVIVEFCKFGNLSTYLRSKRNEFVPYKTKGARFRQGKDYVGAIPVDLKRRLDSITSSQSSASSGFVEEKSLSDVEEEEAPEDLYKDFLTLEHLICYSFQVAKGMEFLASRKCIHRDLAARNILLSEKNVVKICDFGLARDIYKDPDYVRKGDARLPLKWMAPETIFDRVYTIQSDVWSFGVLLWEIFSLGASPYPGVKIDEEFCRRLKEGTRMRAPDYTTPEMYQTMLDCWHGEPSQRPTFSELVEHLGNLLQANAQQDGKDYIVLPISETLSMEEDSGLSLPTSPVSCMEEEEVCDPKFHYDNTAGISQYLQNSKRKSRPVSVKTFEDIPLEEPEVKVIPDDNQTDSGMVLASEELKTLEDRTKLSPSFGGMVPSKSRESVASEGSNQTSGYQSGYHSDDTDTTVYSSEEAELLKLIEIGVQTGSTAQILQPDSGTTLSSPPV

Bounds are passed on as bounds.

Chain of Tb-labeled inactive PDGFRβ (P09619 33-1106): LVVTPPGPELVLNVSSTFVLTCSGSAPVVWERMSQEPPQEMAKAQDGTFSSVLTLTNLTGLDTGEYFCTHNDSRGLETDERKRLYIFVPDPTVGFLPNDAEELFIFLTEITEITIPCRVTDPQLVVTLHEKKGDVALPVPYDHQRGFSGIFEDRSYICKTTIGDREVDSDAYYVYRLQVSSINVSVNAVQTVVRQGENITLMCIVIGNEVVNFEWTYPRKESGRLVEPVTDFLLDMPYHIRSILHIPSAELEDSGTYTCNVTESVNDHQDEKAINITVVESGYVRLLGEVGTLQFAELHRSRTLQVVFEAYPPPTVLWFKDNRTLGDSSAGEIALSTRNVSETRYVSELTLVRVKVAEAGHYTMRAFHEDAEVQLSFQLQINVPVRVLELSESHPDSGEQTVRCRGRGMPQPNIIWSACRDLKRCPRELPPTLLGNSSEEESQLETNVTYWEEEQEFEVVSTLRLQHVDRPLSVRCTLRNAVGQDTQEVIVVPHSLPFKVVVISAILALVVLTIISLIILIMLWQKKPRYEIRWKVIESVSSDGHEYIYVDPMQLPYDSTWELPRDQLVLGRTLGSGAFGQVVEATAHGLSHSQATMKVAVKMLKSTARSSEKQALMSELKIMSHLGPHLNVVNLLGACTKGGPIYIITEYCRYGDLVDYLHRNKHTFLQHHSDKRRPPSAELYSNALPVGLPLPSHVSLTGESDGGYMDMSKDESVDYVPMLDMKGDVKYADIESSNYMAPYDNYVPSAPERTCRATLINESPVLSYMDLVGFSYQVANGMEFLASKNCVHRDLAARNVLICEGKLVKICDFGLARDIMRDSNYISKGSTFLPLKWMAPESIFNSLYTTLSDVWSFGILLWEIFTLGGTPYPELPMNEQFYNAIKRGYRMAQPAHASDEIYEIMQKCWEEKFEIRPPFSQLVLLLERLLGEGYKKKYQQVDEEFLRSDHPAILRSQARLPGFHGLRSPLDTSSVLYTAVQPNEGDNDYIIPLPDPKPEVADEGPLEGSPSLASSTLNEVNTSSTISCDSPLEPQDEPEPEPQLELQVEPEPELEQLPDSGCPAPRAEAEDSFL
Chain of His6-TEV-PDGFRβ (557-1016) (P09619 557-1016): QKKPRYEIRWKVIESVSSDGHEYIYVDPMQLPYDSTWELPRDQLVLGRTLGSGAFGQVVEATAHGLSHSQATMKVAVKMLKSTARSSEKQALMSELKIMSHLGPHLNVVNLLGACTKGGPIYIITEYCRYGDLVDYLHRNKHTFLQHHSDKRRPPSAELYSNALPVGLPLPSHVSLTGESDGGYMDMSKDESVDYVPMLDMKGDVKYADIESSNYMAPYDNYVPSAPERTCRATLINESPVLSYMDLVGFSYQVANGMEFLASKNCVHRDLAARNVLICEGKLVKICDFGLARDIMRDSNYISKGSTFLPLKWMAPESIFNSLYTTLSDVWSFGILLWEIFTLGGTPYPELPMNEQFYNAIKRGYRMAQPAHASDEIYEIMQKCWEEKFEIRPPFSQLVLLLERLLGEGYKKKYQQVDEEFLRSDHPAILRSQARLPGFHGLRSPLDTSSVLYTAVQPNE

Usually IC50 stands for the concentration needed to halve the response being measured. On to `COCCn1cc(-c2cn3ncc(C(=O)Nc4cc(NC(=O)CCN5C[C@H]6CC[C@@H]5C6)cnc4C)c3s2)cn1` [Example 94, N-(5-(3-((1R,4S)-2-azabicyclo[2.2.1]heptan-2-yl)propanamido)-2-methylpyridin-3-yl)-2-(1-(2-methoxyethyl)-1H-pyrazol-4-yl)pyrazolo[5,1-b]thiazole-7-carboxamide], for which the IC50 in experiment [1] was 0.5 nM; in experiment [2], 14.2 nM; at VEGFR2, unphosphorylated, more than 7.5 µM.
In the same order, the values of `Cc1ncc(NC(=O)CN2CCn3ccnc3C2)cc1NC(=O)c1cnn2cc(-c3cnn(C)c3)sc12` [Example 75, N-(5-(2-(5,6-dihydroimidazo[1,2-a]pyrazin-7 (8H)-yl)acetamido)-2-methylpyridin-3-yl)-2-(1-methyl-1H-pyrazol-4-yl)pyrazolo[5,1-b]thiazole-7-carboxamide] are 4.1 nM, 47 nM and more than 7.5 µM.
As to `Cc1ncc(NC(=O)CNCC(C)C)cc1NC(=O)c1cnn2cc(-c3cnn4c3CCC4)sc12` [Example 493, 2-(5,6-dihydro-4H-pyrrolo[1,2-b]pyrazol-3-yl)-N-(5-(2-(isobutylamino)acetamido)-2-methylpyridin-3-yl)pyrazolo[5,1-b]thiazole-7-carboxamide], the IC50 in experiment [1] was 0.2 nM; in experiment [2], 1.9 nM; on VEGFR2, unphosphorylated it was more than 7.5 µM.
As for `Cc1ncc(NC(=O)CN2[C@H](C)COC[C@@H]2C)cc1NC(=O)c1cnn2cc(-c3cnn(C)c3)sc12` [Example 71, N-(5-(2-((3S,5R)-3,5-dimethylmorpholino)acetamido)-2-methylpyridin-3-yl)-2-(1-methyl-1H-pyrazol-4-yl)pyrazolo[5,1-b]thiazole-7-carboxamide], the IC50 is 2.9 nM in experiment [1]; 47.9 nM in experiment [2]; more than 7.5 µM against VEGFR2, unphosphorylated.
In the same order, the values of `Cc1ncc(NC(=O)CN2Cc3cccnc3C2)cc1NC(=O)c1cnn2cc(-c3cnn(C)c3)sc12` [Example 48, N-(5-(2-(5H-pyrrolo[3,4-b]pyridin-6 (7H)-yl)acetamido)-2-methylpyridin-3-yl)-2-(1-methyl-1H-pyrazol-4-yl)pyrazolo[5,1-b]thiazole-7-carboxamide] are 1.4 nM, 16.8 nM and more than 7.5 µM.
In the same order, the values of `Cc1ncc(NC(=O)CNC2(C)CCC2)cc1NC(=O)c1cnn2cc(-c3cnn4c3OCCC4)sc12` [Example 495, 2-(6,7-dihydro-5H-pyrazolo[5,1-b][1,3]oxazin-3-yl)-N-(2-methyl-5-(2-((1-methylcyclobutyl)amino)acetamido)pyridin-3-yl)pyrazolo[5,1-b]thiazole-7-carboxamide] are 0.3 nM, 2.5 nM and more than 7.5 µM.
As to `Cc1ncc(NC(=O)CN2CCOCC2)cc1NC(=O)c1cnn2cc(-c3cnn(C)c3)sc12` [Example 55, 2-(1-methyl-1H-pyrazol-4-yl)-N-(2-methyl-5-(2-morpholinoacetamido)pyridin-3-yl)pyrazolo[5,1-b]thiazole-7-carboxamide], the IC50 in experiment [1] was 1.5 nM; in experiment [2], 40.6 nM; on VEGFR2, unphosphorylated, more than 7.5 µM.
In the same order, the values of `Cc1ncc(NC(=O)CN2CCc3cnccc3C2)cc1NC(=O)c1cnn2cc(-c3cnn(C)c3)sc12` [Example 62, N-(5-(2-(3,4-dihydro-2,6-naphthyridin-2 (1H)-yl)acetamido)-2-methylpyridin-3-yl)-2-(1-methyl-1H-pyrazol-4-yl)pyrazolo[5,1-b]thiazole-7-carboxamide] are 1.4 nM, 17.6 nM and more than 7.5 µM.
In the same order, the values of `Cc1ncc(NC(=O)CCN2CCCC2(C)C)cc1NC(=O)c1cnn2cc(-c3cnn(CCO)c3)sc12` [Example 88, N-(5-(3-(2,2-dimethylpyrrolidin-1-yl)propanamido)-2-methylpyridin-3-yl)-2-(1-(2-hydroxyethyl)-1H-pyrazol-4-yl)pyrazolo[5,1-b]thiazole-7-carboxamide] are 0.4 nM, 4.2 nM and more than 7.5 µM.
The like results for `COCCn1cc(-c2cn3ncc(C(=O)Nc4cc(NC(=O)CCN5CCC6(CCC6)C5)cnc4C)c3s2)cn1` [Example 90, N-(5-(3-(6-azaspiro[3.4]octan-6-yl)propanamido)-2-methylpyridin-3-yl)-2-(1-(2-methoxyethyl)-1H-pyrazol-4-yl)pyrazolo[5,1-b]thiazole-7-carboxamide] were, in that order, 0.5 nM, 10.6 nM and more than 2.5 µM.
As for `COCCn1cc(-c2cn3ncc(C(=O)Nc4cc(NC(=O)CCN5C[C@@H]6CC[C@H]5C6)cnc4C)c3s2)cn1` [Example 92, N-(5-(3-((1S,4R)-2-azabicyclo[2.2.1]heptan-2-yl)propanamido)-2-methylpyridin-3-yl)-2-(1-(2-methoxyethyl)-1H-pyrazol-4-yl)pyrazolo[5,1-b]thiazole-7-carboxamide], the IC50 is 0.5 nM in experiment [1]; 7.2 nM in experiment [2]; more than 7.5 µM at VEGFR2, unphosphorylated.
The like results for `Cc1ncc(NC(=O)CN2CCCOCC2)cc1NC(=O)c1cnn2cc(-c3cnn(C)c3)sc12` [Example 80, N-(5-(2-(1,4-oxazepan-4-yl)acetamido)-2-methylpyridin-3-yl)-2-(1-methyl-1H-pyrazol-4-yl)pyrazolo[5,1-b]thiazole-7-carboxamide] were, in that order, 1.4 nM, 19.3 nM and more than 7.5 µM.
Consider `CC[C@@H]1COCCN1CC(=O)Nc1cnc(C)c(NC(=O)c2cnn3cc(-c4cnn(C)c4)sc23)c1` [Example 69, (R)—N-(5-(2-(3-ethylmorpholino)acetamido)-2-methylpyridin-3-yl)-2-(1-methyl-1H-pyrazol-4-yl)pyrazolo[5,1-b]thiazole-7-carboxamide], for which the IC50 in experiment [1] was 0.5 nM; in experiment [2], 4.7 nM; against VEGFR2, unphosphorylated, more than 7.5 µM.
Take `COCCn1cc(-c2cn3ncc(C(=O)Nc4cc(NC(=O)C(C)(C)CN5CCCC5(C)C)cnc4C)c3s2)cn1` [Example 488, N-(5-(3-(2,2-dimethylpyrrolidin-1-yl)-2,2-dimethyl-propanamido)-2-methylpyridin-3-yl)-2-(1-(2-methoxyethyl)-1H-pyrazol-4-yl)pyrazolo[5,1-b]thiazole-7-carboxamide]: the IC50 was 92.3 nM in experiment [1]; 1280 nM in experiment [2]; more than 7.5 µM at VEGFR2, unphosphorylated.
Take `Cc1ncc(NC(=O)CN2CCCCC23CC3)cc1NC(=O)c1cnn2cc(-c3cnn(CCO)c3)sc12` [Example 86, N-(5-(2-(4-azaspiro[2.5]octan-4-yl)acetamido)-2-methylpyridin-3-yl)-2-(1-(2-hydroxyethyl)-1H-pyrazol-4-yl)pyrazolo[5,1-b]thiazole-7-carboxamide]: the IC50 was 1.3 nM in experiment [1]; 7.3 nM in experiment [2]; more than 7.5 µM at VEGFR2, unphosphorylated.
The like results for `COCCn1cc(-c2cn3ncc(C(=O)Nc4cc(NC(=O)CCN5CCC(C)(C)C5)cnc4C)c3s2)cn1` [Example 89, N-(5-(3-(3,3-dimethylpyrrolidin-1-yl)propanamido)-2-methylpyridin-3-yl)-2-(1-(2-methoxyethyl)-1H-pyrazol-4-yl)pyrazolo[5,1-b]thiazole-7-carboxamide] were, in that order, 0.6 nM, 12.7 nM and more than 7.5 µM.
In the same order, the values of `Cc1ncc(NC(=O)CN2CCOCC23CCC3)cc1NC(=O)c1cnn2cc(-c3cnn(C)c3)sc12` [Example 78, N-(5-(2-(8-oxa-5-azaspiro[3.5]nonan-5-yl)acetamido)-2-methylpyridin-3-yl)-2-(1-methyl-1H-pyrazol-4-yl)pyrazolo[5,1-b]thiazole-7-carboxamide] are 0.9 nM, 5.7 nM and more than 7.5 µM.
